This passage reports Ki results from US8008301B2, “Histamine H3 receptor agents, preparation and therapeutic uses” (Eli Lilly and Company, priority 2004, dated 2011).

For orientation: Ki means the dissociation constant of the complex between target and ligand, obtained from inhibition or displacement.

The test concerns the target T1, H3R membranes (H3R8-expressing HEK293 cell line) (Homo sapiens, UniProt Q9Y5N1).
T1 construct: expressed in transfected cells; membranes
Briefly: [35S] GTPγ[S] binding assay, antagonist activity in the presence of agonist R(-)alpha methylhistamine. It counts as biochemical. As to conditions: inhibition of [35S]GTPγS binding to H3R membranes in presence of agonist. Here is the method: Membranes isolated as described in (Preparation of Histamine Receptor Subtype Membranes) were used in a [35S]GTPχS functional assay. Binding of [35S]GTPχS to membranes indicates agonist activity. Compounds of the invention of Formula I or Formula II were tested for their ability to inhibit binding in the presence of agonists. Alternately, the same transfected cell lines were used for a cAMP assay wherein H3R agonists inhibited forskolin-activated synthesis of cAMP. Compounds of Formula I or Formula II were tested for their ability to permit forskolin-stimulated cAMP synthesis in the presence of agonist.
Antagonist activity of selected compounds was tested for inhibition of [35S] GTP γ [S] binding to H3R membranes in the presence of agonists. Assays were run at room temperature in 20 mM HEPES, 100 mM NaCl, 5 mM MgCl2 and 10 uM GDP at pH 7.4 in a final volume of 200 ul in 96-well Costar plates. Membranes isolated from H3R8-expressing HEK293 cell line (20 ug/well) and GDP were added to each well in a volume of 50 μl assay buffer. Antagonist was then added to the wells in a volume of 50 μl assay buffer and incubated for 15 minutes at room temperature. […] Plates were counted in Wallac Trilux 1450 Microbeta scintillation counter for 1 minute. […]

Molecules are shown by their SMILES.

T1 sequence (Q9Y5N1 whole entry): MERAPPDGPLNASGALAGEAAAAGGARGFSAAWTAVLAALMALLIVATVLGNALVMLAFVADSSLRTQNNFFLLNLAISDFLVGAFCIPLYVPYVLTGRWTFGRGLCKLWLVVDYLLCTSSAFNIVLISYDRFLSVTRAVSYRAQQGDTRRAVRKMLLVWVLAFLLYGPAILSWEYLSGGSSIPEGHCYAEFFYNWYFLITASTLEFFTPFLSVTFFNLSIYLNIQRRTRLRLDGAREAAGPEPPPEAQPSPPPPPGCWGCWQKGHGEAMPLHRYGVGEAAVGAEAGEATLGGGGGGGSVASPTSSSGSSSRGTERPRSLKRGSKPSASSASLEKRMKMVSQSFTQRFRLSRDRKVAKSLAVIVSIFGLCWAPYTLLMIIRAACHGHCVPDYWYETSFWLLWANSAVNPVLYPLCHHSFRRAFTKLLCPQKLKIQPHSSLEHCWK

As to `O=C(c1ccc(-c2ccccn2)cc1)N1CCC[C@H]1CN1CCCC1`, the Ki stood at 0.049 µM.
